Series [1] has as its target Elastase, neutrophil expressed (Cricetulus griseus, UniProt A0A3L7HHY4). The series can be described thus: ELANE inhibitor assay (hamster).
In a further series the target is Myeloblastin (Homo sapiens, UniProt P24158). The series can be described thus: PRTN3 inhibition assay.
The target of series [2] is 5-hydroxytryptamine receptor 5A (Homo sapiens) (UniProt P47898). In words: Activity against 5HT5A/H in the Eurofins SafetyScreen44 (BI) by Radioactive Assay (Old_Cerep_2). Conditions: Compound concentration 10.0 uM.
The target in series [3] is Adrenergic receptor alpha-2 (Rattus norvegicus) (UniProt P22086+P19328+P22909). The series can be described thus: Inhibitor of ALPHA2/NS/R in the Eurofins SafetyScreen44 (BI) by Radioactive Assay (Old_Cerep_6). The series is classed as protein assay.
The target of series [4] is Type-2 angiotensin II receptor (Homo sapiens) (UniProt P50052). In words: Activity against AT2/H in the Eurofins SafetyScreen44 (BI) by Radioactive Assay (Old_Cerep_7).
The target in series [5] is Bombesin receptor (Rattus norvegicus) (UniProt P52500+P24053+Q8K418). In words: Activity against BOMBESIN/NS in the Eurofins SafetyScreen44 (BI) by Radioactive Assay (Old_Cerep_9). The series is classed as protein assay.
Series [6] addresses Muscarinic acetylcholine receptor M4 (Homo sapiens) (UniProt P08173). In words: M4 Eurofins-Cerep binding assay. To be noted: Compound concentration 10.0 uM.
The target in series [7] is Muscarinic acetylcholine receptor M5 (Homo sapiens) (UniProt P08912). In words: M5 Eurofins-Cerep binding assay. Conditions: Compound concentration 10.0 uM.
Series [8] has as its target Melanocortin receptor 4 (Homo sapiens) (UniProt P32245). In words: MC4 Eurofins-Cerep binding assay. Further details: ligand concentration 0.05 nM. To be noted: Compound concentration 10.0 uM.
Series [9] addresses Substance-P receptor (Homo sapiens) (UniProt P25103). In words: NK1 Eurofins-Cerep binding assay. Conditions: Compound concentration 10.0 uM.
Series [10] has as its target Nociceptin receptor (Homo sapiens) (UniProt P41146). The series can be described thus: Activity against ORL1/H in the Eurofins SafetyScreen44 (BI) by Radioactive Assay (Old_Cerep_28). To be noted: Compound concentration 10.0 uM.
Series [11] addresses T1, Glutamate NMDA receptor (Rattus norvegicus) (UniProt P35439+Q00959+Q00960+Q00961+Q62645+Q8VHN2+Q9R1M7). The series can be described thus: PCP Eurofins-Cerep binding assay. The series is classed as protein-complex assay. To be noted: Compound concentration 10.0 uM.
For series [12], the target named is Platelet-derived growth factor receptor (Mus musculus) (UniProt P05622+P26618). In words: Activity against PDGF/M in the Eurofins SafetyScreen44 (BI) (Old_Cerep_33). The series is classed as protein-complex assay. To be noted: Compound concentration 10.0 uM.
The target in series [13] is 5-hydroxytryptamine receptor 2C (Homo sapiens) (UniProt P28335). In words: Activity against 5HT2C/H in the Eurofins SafetyScreen44 (BI) (Cerep_1003). Conditions: Compound concentration 10.0 uM.
In series [14] the target is T2, GABA-A receptor; anion channel (Rattus norvegicus) (UniProt O09028+P15431+P18506+P18508+P19969+P20236+P23574+P23576+P28471+P28473+P30191+P62813+P63079+P63138+Q91ZM7+Q9ES14). In words: Activity against BZD/PERIPH/R in the Eurofins SafetyScreen44 (BI) by Radioactive Assay (Old_Cerep_10). It is filed as protein-complex assay.
Series [15] addresses Cannabinoid receptor 1 (Homo sapiens) (UniProt P21554). In words: Activity against CB1/CENTR/H in the Eurofins SafetyScreen44 (BI) by Radioactive Assay (Old_Cerep_12).
Series [16] concerns the target Gastrin/cholecystokinin type B receptor (Homo sapiens) (UniProt P32239). In words: Activity against CCKB/H in the Eurofins SafetyScreen44 (BI) by Radioactive Assay (Old_Cerep_13). To be noted: Compound concentration 10.0 uM.
The target of series [17] is Calcitonin-gene-related peptide receptor, CALCRL/RAMP1 (Homo sapiens) (UniProt O60894+Q16602). The series can be described thus: Agonist activity in the Eurofins SafetyScreen44 (BI) against CGRP/H by Scintillation counting (Old_Cerep_15). It is filed as protein-complex assay.
For the next series, the species on record is Rattus norvegicus. The series can be described thus: Cl-channel (GABA-gated) Eurofins-Cerep binding assay. To be noted: Compound concentration 10.0 uM. On the set-up: ligand concentration 3 nM.
Series [18] has as its target T2, GABA-A receptor; anion channel (Rattus norvegicus). In words: Inhibitor of GABA/NS/R in the Eurofins SafetyScreen44 (BI) by Radioactive Assay (Cerep_60). The series is classed as protein-complex assay. Conditions: Compound concentration 10.0 uM.
The target of series [19] is Galanin receptor type 1 (Homo sapiens) (UniProt P47211). In words: Activity against GAL1/H in the Eurofins SafetyScreen44 (BI) by Radioactive Assay (Old_Cerep_21). To be noted: Compound concentration 10.0 uM.
For series [20], the target named is Kappa-type opioid receptor (Rattus norvegicus) (UniProt P34975). The series can be described thus: Inhibitor of KAPPA/R in the Eurofins SafetyScreen44 (BI) by Radioactive Assay (Old_Cerep_24). Conditions: Compound concentration 10.0 uM.
Series [21] concerns the target Cannabinoid receptor 1 (Homo sapiens) (UniProt P21554). In words: CB1 Eurofins-Cerep binding assay. Conditions: Compound concentration 10.0 uM.
Series [22] has as its target Prostaglandin G/H synthase 1 (Homo sapiens) (UniProt P23219). In words: Inhibitor of COX-1 in the Eurofins Cerep SafetyScreen44 (BI) by Fluorimetry (Cerep_4173). Conditions: Compound concentration 10.0 uM.
For series [23], the target named is Prostaglandin G/H synthase 2 (Homo sapiens) (UniProt P35354). The series can be described thus: Inhibitor of COX-2 in the Eurofins Cerep SafetyScreen44 (BI) by Fluorimetry (Cerep_4186). Conditions: Compound concentration 10.0 uM.
The target in series [24] is Cannabinoid receptor 2 (Homo sapiens) (UniProt P34972). The series can be described thus: Activity against CB2/PERIPH/H in the Eurofins Cerep SafetyScreen44 (BI) by Radioactive Assay (Cerep_37). To be noted: Compound concentration 10.0 uM.
In another series the target is hERG (KCNH2) (Homo sapiens, UniProt Q12809). In words: Inhibitor of HERG_DOFETILIDE in the Eurofins Cerep SafetyScreen44 (BI) by Scintillation counting (Cerep_4094). Further details: scale not given: the % may be the effect or the level left. To be noted: probe [3H]dofetilide, compound concentration 10 uM, read-out: % Ctrl.
Series [25] concerns the target MAO-A (amine oxidase [flavin-containing] A) (Homo sapiens, UniProt P21397). In words: Agonist activity in the Eurofins Cerep SafetyScreen44 (BI) against MAO-A_ANTAG by Scintillation counting (Cerep_443). On the set-up: scale not given: the % may be the effect or the level left. Conditions: rat; compound concentration 10 uM; target entry is the homologue from another species; read-out: % Ctrl.

Series [26] deals with T1, Glutamate NMDA receptor (Rattus norvegicus). In words: Inhibitor of NMDA/R in the Eurofins Cerep SafetyScreen44 (BI) by Radioactive Assay (Cerep_66). It is filed as protein-complex assay. To be noted: Compound concentration 10.0 uM.
The species entered for another series is Homo sapiens. In words: Agonist activity in the Eurofins Cerep SafetyScreen44 (BI) against N_NEURO_A4B2 by Radioligand Binding (Cerep_3029). The series is classed as protein-complex assay. To be noted: Compound concentration 10.0 uM.
Series [27] has as its target cGMP-inhibited 3',5'-cyclic phosphodiesterase 3A (Homo sapiens) (UniProt Q14432). The series can be described thus: Inhibitor of PDE3A in the Eurofins Cerep SafetyScreen44 (BI) by HTRF-homogeneous time resolved fluoresce (Cerep_4072). Conditions: Compound concentration 10.0 uM.
For series [28], the target named is Androgen receptor (Homo sapiens) (UniProt P10275). To be noted: Compound concentration 10.0 uM.
Description: Activity against ANDROGEN/H in the Eurofins Cerep SafetyScreen44 (BI) by Radioactive Assay (Cerep_933)

Molecules are shown by their SMILES. Calls of active or inactive are those of the source. The rule behind the calls is not given here.

Chain of Cannabinoid receptor 1 (Homo sapiens) (P21554 whole entry): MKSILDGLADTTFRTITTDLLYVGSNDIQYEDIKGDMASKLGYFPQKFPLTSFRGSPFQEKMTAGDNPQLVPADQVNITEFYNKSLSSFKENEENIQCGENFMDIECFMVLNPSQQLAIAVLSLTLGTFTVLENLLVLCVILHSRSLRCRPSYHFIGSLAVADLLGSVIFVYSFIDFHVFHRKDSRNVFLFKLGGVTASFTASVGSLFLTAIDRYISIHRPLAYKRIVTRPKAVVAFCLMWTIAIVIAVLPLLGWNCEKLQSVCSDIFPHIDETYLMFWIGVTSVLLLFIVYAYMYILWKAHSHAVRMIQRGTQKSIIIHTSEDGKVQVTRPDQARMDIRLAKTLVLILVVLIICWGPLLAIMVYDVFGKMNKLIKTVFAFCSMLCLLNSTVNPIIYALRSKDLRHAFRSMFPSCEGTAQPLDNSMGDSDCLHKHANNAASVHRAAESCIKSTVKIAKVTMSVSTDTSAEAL
Chain of Bombesin receptor (Rattus norvegicus) (P24053 whole entry, looked up): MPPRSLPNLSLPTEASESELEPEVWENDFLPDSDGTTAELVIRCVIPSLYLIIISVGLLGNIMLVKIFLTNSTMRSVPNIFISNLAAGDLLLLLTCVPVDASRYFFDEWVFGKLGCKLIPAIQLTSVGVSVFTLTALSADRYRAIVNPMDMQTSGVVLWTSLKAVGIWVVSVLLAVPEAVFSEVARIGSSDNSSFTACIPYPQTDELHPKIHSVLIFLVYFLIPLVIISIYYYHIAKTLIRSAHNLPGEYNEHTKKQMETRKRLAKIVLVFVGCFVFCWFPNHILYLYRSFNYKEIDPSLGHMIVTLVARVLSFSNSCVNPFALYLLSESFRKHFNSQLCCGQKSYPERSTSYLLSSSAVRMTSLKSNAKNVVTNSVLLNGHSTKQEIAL
Chain of Bombesin receptor (Rattus norvegicus) (P52500 whole entry, looked up): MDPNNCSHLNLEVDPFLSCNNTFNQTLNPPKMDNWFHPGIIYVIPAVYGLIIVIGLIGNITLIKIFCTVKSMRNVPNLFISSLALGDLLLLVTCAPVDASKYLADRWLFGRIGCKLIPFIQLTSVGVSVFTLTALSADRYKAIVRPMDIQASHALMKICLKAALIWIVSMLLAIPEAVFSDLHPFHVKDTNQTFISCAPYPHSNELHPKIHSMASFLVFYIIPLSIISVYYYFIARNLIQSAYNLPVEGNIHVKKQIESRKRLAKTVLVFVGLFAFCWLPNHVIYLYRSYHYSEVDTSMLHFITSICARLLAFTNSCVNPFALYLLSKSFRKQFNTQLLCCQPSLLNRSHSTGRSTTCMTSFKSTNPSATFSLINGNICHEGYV
Chain of Bombesin receptor (Rattus norvegicus) (Q8K418 whole entry, looked up): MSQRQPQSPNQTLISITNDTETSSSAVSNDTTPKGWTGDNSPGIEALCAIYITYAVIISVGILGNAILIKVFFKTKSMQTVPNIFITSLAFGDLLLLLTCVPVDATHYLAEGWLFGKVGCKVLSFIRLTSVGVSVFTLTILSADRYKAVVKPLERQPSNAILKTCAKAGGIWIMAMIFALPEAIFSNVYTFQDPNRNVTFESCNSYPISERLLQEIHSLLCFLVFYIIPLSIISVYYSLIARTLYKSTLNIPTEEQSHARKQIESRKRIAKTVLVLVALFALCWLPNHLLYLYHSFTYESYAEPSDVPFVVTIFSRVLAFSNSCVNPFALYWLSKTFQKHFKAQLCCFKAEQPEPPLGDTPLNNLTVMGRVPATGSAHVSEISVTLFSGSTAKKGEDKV
Chain of Type-2 angiotensin II receptor (Homo sapiens) (P50052 whole entry): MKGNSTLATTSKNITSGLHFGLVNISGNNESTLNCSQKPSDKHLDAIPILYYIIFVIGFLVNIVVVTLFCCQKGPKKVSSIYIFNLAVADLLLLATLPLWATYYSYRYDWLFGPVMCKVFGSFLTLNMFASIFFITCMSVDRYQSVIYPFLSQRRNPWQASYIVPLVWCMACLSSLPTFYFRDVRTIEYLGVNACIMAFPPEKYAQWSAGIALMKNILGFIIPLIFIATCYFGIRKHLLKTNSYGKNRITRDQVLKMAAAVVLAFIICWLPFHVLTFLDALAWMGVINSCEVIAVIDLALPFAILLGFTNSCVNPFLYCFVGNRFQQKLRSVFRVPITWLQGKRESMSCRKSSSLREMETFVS
Chain of hERG (KCNH2) (Q12809 whole entry): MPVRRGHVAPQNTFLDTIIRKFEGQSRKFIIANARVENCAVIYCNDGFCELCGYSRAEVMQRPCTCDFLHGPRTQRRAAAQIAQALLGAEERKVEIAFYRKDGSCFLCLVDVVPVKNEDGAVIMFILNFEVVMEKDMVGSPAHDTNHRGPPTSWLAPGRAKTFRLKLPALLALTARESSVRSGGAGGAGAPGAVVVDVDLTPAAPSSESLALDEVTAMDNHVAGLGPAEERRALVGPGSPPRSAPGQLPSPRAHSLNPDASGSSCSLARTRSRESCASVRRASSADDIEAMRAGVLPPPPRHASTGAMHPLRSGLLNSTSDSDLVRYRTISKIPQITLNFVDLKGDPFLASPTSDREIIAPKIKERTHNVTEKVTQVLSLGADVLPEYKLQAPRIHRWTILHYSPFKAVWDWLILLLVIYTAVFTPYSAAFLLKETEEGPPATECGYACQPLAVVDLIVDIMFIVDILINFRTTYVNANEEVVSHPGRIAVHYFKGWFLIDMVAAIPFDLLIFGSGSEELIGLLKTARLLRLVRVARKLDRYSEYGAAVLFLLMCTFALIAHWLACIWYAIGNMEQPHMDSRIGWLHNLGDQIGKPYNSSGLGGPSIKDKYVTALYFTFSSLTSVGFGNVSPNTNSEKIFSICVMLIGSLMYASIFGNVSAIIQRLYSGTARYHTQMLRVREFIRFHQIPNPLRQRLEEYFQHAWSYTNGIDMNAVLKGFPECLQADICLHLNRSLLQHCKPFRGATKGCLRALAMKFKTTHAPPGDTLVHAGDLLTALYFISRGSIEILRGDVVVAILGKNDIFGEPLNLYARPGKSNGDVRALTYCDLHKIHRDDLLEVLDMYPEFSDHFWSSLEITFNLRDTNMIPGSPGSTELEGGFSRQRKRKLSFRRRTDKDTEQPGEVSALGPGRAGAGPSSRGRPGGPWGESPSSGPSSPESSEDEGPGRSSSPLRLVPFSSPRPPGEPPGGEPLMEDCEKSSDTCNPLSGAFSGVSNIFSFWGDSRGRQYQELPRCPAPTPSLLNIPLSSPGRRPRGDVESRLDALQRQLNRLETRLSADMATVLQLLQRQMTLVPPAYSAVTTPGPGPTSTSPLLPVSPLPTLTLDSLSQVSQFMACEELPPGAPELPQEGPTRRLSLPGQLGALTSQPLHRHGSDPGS
Chain of Cannabinoid receptor 2 (Homo sapiens) (P34972 whole entry): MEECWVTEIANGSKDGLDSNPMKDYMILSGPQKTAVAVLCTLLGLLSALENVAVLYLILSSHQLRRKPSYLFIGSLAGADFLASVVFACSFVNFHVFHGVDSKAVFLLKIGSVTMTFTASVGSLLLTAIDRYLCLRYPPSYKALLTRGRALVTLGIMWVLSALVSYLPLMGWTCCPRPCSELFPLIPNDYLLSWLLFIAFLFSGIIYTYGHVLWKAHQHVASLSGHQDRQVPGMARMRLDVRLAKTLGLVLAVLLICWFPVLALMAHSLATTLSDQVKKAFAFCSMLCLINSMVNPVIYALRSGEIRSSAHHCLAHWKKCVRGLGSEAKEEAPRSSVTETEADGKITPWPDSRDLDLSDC
Chain of Melanocortin receptor 4 (Homo sapiens) (P32245 whole entry): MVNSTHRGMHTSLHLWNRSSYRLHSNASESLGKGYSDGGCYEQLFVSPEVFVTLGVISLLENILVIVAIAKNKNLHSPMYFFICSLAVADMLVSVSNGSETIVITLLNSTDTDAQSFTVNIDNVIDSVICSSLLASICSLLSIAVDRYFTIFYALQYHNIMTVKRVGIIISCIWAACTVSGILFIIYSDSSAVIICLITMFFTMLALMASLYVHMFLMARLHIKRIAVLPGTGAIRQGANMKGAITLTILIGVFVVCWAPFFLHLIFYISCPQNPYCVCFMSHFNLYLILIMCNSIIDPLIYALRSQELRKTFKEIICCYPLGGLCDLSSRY
Chain of Androgen receptor (Homo sapiens) (P10275 whole entry): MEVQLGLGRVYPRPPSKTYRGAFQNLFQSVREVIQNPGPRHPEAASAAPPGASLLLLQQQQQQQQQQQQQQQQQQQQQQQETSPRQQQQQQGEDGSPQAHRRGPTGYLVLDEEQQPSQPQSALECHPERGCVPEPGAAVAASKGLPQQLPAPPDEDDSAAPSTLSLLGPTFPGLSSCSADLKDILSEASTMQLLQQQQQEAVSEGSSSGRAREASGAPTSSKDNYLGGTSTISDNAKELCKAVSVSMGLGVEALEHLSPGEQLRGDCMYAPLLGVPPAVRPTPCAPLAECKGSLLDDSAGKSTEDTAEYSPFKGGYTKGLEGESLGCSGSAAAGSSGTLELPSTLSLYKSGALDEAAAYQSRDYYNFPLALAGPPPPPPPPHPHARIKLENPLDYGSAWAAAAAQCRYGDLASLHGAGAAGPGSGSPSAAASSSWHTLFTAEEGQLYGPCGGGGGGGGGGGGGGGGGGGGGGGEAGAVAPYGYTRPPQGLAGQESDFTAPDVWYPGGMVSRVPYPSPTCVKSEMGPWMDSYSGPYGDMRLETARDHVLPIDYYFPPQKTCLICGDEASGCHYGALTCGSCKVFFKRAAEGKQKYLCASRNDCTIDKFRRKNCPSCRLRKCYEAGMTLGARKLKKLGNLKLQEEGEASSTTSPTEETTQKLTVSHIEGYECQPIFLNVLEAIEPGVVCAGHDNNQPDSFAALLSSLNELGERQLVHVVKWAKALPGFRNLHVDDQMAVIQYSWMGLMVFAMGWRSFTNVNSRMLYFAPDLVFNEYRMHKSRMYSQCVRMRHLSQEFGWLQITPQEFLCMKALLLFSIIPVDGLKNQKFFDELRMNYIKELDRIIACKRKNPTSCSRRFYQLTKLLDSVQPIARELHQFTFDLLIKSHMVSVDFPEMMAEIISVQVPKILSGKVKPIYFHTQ

With `CC(C)(O)CNC(=O)N1C(=O)N(c2cccc(C(F)(F)F)c2)C2=C(C(=O)CC2)[C@H]1c1ccc(C#N)cc1`, the IC50 was 4 nM (active) in [1] and 367 nM (not active) against Myeloblastin. Also, the residual activity in [2] is 98%; in series [3] (Compound concentration 10.0 uM), 93%; in series [3] (Compound concentration 30.0 uM), 98%; in [4] (Compound concentration 10.0 uM) it was 92%; in series [4] (Compound concentration 30.0 uM) it was 114%; in series [5] (Compound concentration 10.0 uM) it was 129%. Also, the residual activity in series [5] (Compound concentration 30.0 uM) was 118%; in series [6], 95%; in series [7] it was 92%; in series [8], 92%; in series [9] it was 115%; in series [10], 95%. The residual activity in series [11] is 104%; in [12] it was 103%; in [13], 94%; in [14] (Compound concentration 10.0 uM) it was 100%; in series [14] (Compound concentration 30.0 uM), 93%; in series [15] (Compound concentration 10.0 uM) it was 87%. In addition, the residual activity in series [15] (Compound concentration 30.0 uM) was 93%; in series [16], 106%; in series [17] (Compound concentration 10.0 uM) it was 108%; in series [17] (Compound concentration 30.0 uM), 113%; in the series filed under Rattus norvegicus it was 90%; in series [18], 103%. Also, the residual activity in series [19] is 121%; in series [20], 65%.

As to `CC(C)(O)CNC(=O)N1C(=O)N(c2cccc(C(F)(F)F)c2)C2=C(C(=O)CC2)[C@@H]1c1ccc(C#N)cc1`, the residual activity in [21] is 88%; in series [22], 105%; in series [23], 101%; in series [24], 83%; in [26], 96%; in the series listed under Homo sapiens, 115%. Moreover, the residual activity was 97% in [27] and 101% in series [28]. Besides, the activity at 10 µM at hERG (KCNH2) is recorded as 96% (not active); in series [25], 101% (not active).

The values above are taken from ChEMBL document CHEMBL5463722, “Data for DCP probe BI-5524” (2023).
